Measurements reported in ChEMBL document CHEMBL1614632, “Trend analysis of a database of intravenous pharmacokinetic parameters in humans for 670 drug compounds” (Drug Metab Dispos, 2008).

Assays:
clinical [1] = settings: human, in vivo, iv, Vdss
clinical [2] = settings: human, in vivo, iv, CL
clinical [3] = settings: human, in vivo, iv
clinical [4] = settings: human, in vivo, iv, t1/2

Structure (SMILES) | Vd (clinical [1]) [L/kg] | clearance (clinical [2]) [L/h/kg] | MRT (clinical [3]) [h] | half-life (clinical [4]) [h]
COc1ccc2c(c1)N(C[C@H](C)CN(C)C)c1ccccc1S2 [LEVOMEPROMAZINE] | 12 | 0.594 | 21 | 30
CC(C)(C)[C@H](NC(=O)[C@H](CC1CCCC1)CN(O)C=O)C(=O)N1CCN(Cc2ccc3c(c2)OCO3)CC1 | 1.1 | 0.186 | 5.9 | 9.4
O=c1n(CCCN2CCN(c3cccc(Cl)c3)CC2)nc2ccccn12 [TRAZODONE] | 0.52 | 0.084 | 6.2 | 7.3
CC(=O)NC[C@H]1CN(c2ccc(N3CCOCC3)c(F)c2)C(=O)O1 [LINEZOLID] | 0.58 | 0.108 | 5.4 | 4.5
C[C@@H]1C(=O)O[C@H]2[C@H](O)[C@@]34[C@H]5C[C@@H](C(C)(C)C)[C@]36[C@@H](OC(=O)[C@@H]6O)O[C@@]4(C(=O)O5)[C@@]12O [GINKOLIDE B] | 0.91 | 0.138 | 6.6 | 5.2
COC(=O)Nc1nc2ccc(C(=O)c3ccccc3)cc2[nH]1 [MEBENDAZOLE] | 1.2 | 0.9 | 1.3 | 1.1
COc1ccccc1OCCNCC(O)COc1cccc2[nH]c3ccccc3c12 (stereo unspecified) [CARVEDILOL] | 1.3 | 0.468 | 2.8 | 2.4
N/N=c1/cc2c(n[nH]1)CCN(C(=O)c1ccccc1)C2 [ENDRALAZINE] | 2.2 | 0.78 | 2.7 | 5.6
Nc1ncnc2c1ncn2CCOCP(=O)(O)O [ADEFOVIR] | 0.42 | 0.222 | 1.9 | 1.6
CN(C)C(=N)N=C(N)N [METFORMIN] | 0.64 | 0.444 | 1.4 | 1.7
CN(C)[C@@H]1C(O)=C(C(N)=O)C(=O)[C@@]2(O)C(O)=C3C(=O)c4c(O)ccc(Cl)c4[C@@](C)(O)[C@H]3C[C@@H]12 [CHLORTETRACYCLINE] | 0.9 | 0.12 | 7.4 | 7
Nc1nc(=O)[nH]cc1F [FLUCYTOSINE] | 0.68 | 0.12 | 5.7 | 4.2
CC(C)(C)NCC(O)COc1ccc(NC(=O)NC2CCCCC2)cc1 (stereo unspecified) [TALINOLOL] | 3.3 | 0.294 | 11 | 11
CC=CC1=C(C(=O)O)N2C(=O)[C@@H](NC(=O)[C@H](N)c3ccc(O)cc3)[C@H]2SC1 [CEFPROZIL] | 0.21 | 0.174 | 1.2 | 1.2
CC(C(=O)O)c1ccc(C(=O)c2cccs2)cc1 (stereo unspecified) [SUPROFEN] | 0.04 | 0.0456 | 0.88 | 2.1
CC1=C(C(=O)O)N2C(=O)[C@@H](NC(=O)[C@H](N)c3ccc(O)cc3)[C@H]2SC1 [CEFADROXIL] | 0.23 | 0.15 | 1.5 | 1.1
Cc1ccccc1N1C(=O)c2cc(S(N)(=O)=O)c(Cl)cc2NC1C (stereo unspecified) [METOLAZONE] | 1.6 | 0.084 | 19 | 20
CN(C)CCc1c[nH]c2ccc(Cn3cncn3)cc12 [RIZATRIPTAN] | 1.9 | 0.96 | 1.98 | 2.2
CCOC(=O)[C@]1(c2ccccc2)CCC=C[C@H]1NC [NORTILIDINE] | 2.5 | 0.594 | 4.2 | 4.4
CO[C@H]1C[C@@H]2CC[C@@H](C)[C@@](O)(O2)C(=O)C(=O)N2CCCC[C@H]2C(=O)O[C@H]([C@H](C)C[C@@H]2CC[C@@H](OC(=O)C(C)(CO)CO)[C@H](OC)C2)CC(=O)[C@H](C)/C=C(\C)[C@@H](O)[C@@H](OC)C(=O)[C@H](C)C[C@H](C)/C=C/C=C/C=C/1C [TEMSIROLIMUS] | 3 | 0.462 | 10 | 18
C[C@@H]1CN(c2c(F)c(N)c3c(=O)c(C(=O)O)cn(C4CC4)c3c2F)C[C@H](C)N1 [SPARFLOXACIN] | 3.9 | 0.162 | 24 | 20
C=CC[C@@H]1/C=C(\C)C[C@H](C)C[C@H](OC)[C@H]2O[C@@](O)(C(=O)C(=O)N3CCCC[C@H]3C(=O)O[C@H](/C(C)=C/[C@@H]3CC[C@@H](O)[C@H](OC)C3)[C@H](C)[C@@H](O)CC1=O)[C@H](C)C[C@@H]2OC [TACROLIMUS ANHYDROUS] | 1.2 | 0.042 | 27 | 26
Cc1cccc(Nc2ccncc2S(=O)(=O)NC(=O)NC(C)C)c1 [TORSEMIDE] | 0.21 | 0.0318 | 6.6 | 5.1
CC(C)NCC(O)COc1ccc(CCOCC2CC2)cc1 (stereo unspecified) [BETAXOLOL] | 4.8 | 0.204 | 24 | 17
